pIC50, pKi: −log10 of the molar value.
Key:
[1] = target: T1, Bifunctional dihydrofolate reductase-thymidylate synthase [1-238,S58R,S117N] (Plasmodium vivax, UniProt O02604, S117N/S58R); assay: Inhibitor Screening Using Bacterial System (IC50) and Measurement of Inhibition Constant (Ki)
T1 construct: 1-238
Procedure: (§1) Nineteen Pyr analogs were studied for their inhibition activity against cells expressing either WT or SP21 mutant PvDHFR-TS. The assays were conducted with 96-well microplates by monitoring the growth at an optical density of 595 nm (A595). The average A595 of control culture omitting Pyr analogs was scored as 100% growth, and the average readings for the cultures at each drug concentration were divided by this value to obtain relative growth values. The concentrations that inhibited 50% bacterial growth (IC50s) were determined from dose-response curves. Inhibition constants (Ki) of antifolates were calculated using a nonlinear least square fit of the data to the Michaelis-Menten equation, assuming the inhibitor binds competitively to the enzyme active site.

[2] = target: Bifunctional dihydrofolate reductase-thymidylate synthase (Plasmodium vivax, UniProt O02604); assay: as above; conditions: pH 7; 25 °C
Chain of Bifunctional dihydrofolate reductase-thymidylate synthase (O02604 whole entry): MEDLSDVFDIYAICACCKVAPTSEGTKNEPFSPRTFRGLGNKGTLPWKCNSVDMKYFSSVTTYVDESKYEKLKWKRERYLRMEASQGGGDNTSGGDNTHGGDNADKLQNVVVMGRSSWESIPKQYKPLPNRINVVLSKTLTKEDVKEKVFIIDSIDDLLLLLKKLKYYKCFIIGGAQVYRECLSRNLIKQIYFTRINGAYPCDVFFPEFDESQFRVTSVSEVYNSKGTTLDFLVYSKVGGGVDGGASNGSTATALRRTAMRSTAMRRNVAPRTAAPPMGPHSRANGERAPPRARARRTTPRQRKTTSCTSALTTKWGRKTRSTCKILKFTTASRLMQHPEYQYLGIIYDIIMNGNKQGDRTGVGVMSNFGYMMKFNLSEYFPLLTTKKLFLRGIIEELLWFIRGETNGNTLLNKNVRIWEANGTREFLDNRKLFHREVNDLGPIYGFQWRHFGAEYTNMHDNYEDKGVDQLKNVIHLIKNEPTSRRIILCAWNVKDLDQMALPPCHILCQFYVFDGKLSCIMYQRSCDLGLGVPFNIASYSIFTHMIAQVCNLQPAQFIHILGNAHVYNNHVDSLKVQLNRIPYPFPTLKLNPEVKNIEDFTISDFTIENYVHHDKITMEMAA
Procedure: as §1

T1 sequence (O02604 1-238, looked up, stated change not applied): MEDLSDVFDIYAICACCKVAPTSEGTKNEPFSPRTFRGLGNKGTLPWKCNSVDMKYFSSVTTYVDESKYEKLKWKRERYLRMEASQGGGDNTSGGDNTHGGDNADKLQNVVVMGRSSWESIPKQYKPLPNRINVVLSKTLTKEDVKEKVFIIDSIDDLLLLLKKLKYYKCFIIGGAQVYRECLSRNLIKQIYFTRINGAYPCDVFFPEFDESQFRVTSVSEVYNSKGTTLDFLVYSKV

SMILES	pIC50 [1]	pKi [1]	pIC50 [2]	pKi [2]
CCc1nc(N)nc(N)c1-c1ccc(Cl)cc1	4.70	8.52	6.74	9.68
Cc1nc(N)nc(N)c1-c1ccc(Cl)cc1	< 4.30	7.20	5.71	9.11
COC(=O)CCCc1nc(N)nc(N)c1-c1ccc(Cl)cc1	< 4.30	8.13	6.70	9.16
CCc1nc(N)nc(N)c1-c1ccc(OC)cc1	< 4.30	7.42	6.46	9.00
CCc1nc(N)nc(N)c1-c1ccc(Cl)c(Cl)c1	4.98	8.98	7.15	9.28
Nc1nc(N)c(-c2cccc(Cl)c2)c(CCCc2ccccc2)n1	4.86	8.88	5.62	9.11
CCc1nc(N)nc(N)c1-c1ccccc1	5.82	10.10	5.74	10.52
Cc1nc(N)nc(N)c1-c1ccccc1	4.89	7.65	4.95	8.38
Nc1nc(N)c(-c2ccccc2)c(CCCc2ccccc2)n1	5.56	9.09	6.10	9.28
Nc1nc(N)c(-c2cccc(Cl)c2)c(CCOCCCOc2ccccc2)n1 [5-(3-chlorophenyl)-6-[2-(3-phenoxypropoxy)ethyl]pyrimidine-2,4-diamine]	4.85	8.82	5.64	9.20
CCc1nc(N)nc(N)c1-c1cccc(Cl)c1 [5-(3-chlorophenyl)-6-ethylpyrimidine-2,4-diamine]	6.52	9.27	6.44	9.51
Cc1nc(N)nc(N)c1-c1cccc(Cl)c1 [5-(3-chlorophenyl)-6-methylpyrimidine-2,4-diamine]	5.70	8.92	5.67	9.16
CCc1nc(N)nc(N)c1-c1ccc(Br)cc1 [5-(4-bromophenyl)-6-ethylpyrimidine-2,4-diamine]	4.52	8.18	7.05	9.11
CC(C)Cc1nc(N)nc(N)c1-c1ccc(Cl)cc1 [5-(4-chlorophenyl)-6-(2-methylpropyl)pyrimidine-2,4-diamine]	4.74	7.55	6.66	8.85
CCCCCCCCCc1nc(N)nc(N)c1-c1ccc(Cl)cc1 [5-(4-chlorophenyl)-6-nonylpyrimidine-2,4-diamine]	< 4.30	7.61	5.66	8.37
Nc1ncc(-c2ccc(Cl)cc2)c(N)n1 [5-(4-chlorophenyl)pyrimidine-2,4-diamine]	< 4.30	5.97	5.82	8.47
CCc1nc(N)nc(N)c1-c1ccc(C(C)(C)C)cc1 [5-(4-tert-butylphenyl)-6-ethylpyrimidine-2,4-diamine]	< 4.30	7.32	5.75	8.94
CCc1nc(N)nc(N)c1-c1ccc(C)cc1 [6-ethyl-5-(4-methylphenyl)pyrimidine-2,4-diamine]	4.91	8.66	6.85	9.41
CCCCCCc1nc(N)nc(N)c1-c1ccccc1 [6-hexyl-5-phenylpyrimidine-2,4-diamine]	5.52	9.05	6.64	
